Laboratory results reported in ChEMBL document CHEMBL4507256 (2021).

Key:
[1] = biological target: Dual specificity mitogen-activated protein kinase kinase 5 (Homo sapiens) (UniProt Q13163); settings: Compound concentration 1000.0 nM
[2] = tested on: Tyrosine-protein kinase ABL1 (Homo sapiens), P00519 [M351T]; settings: Compound concentration 1000.0 nM
[3] = biological target: Calcium/calmodulin-dependent protein kinase kinase 1 (Homo sapiens) (UniProt Q8N5S9); settings: Compound concentration 1000.0 nM
[4] = biological target: Serine/threonine-protein kinase D3 (Homo sapiens) (UniProt O94806); settings: Compound concentration 1000.0 nM
[5] = biological target: Rho-associated protein kinase 2 (Homo sapiens) (UniProt O75116); settings: Compound concentration 1000.0 nM
[6] = GPCRScan assay: inhibition of GABA/PBR; parameters: species or system Rattus norvegicus; radioligand conc. used [nm] 0.3 – 2.0, parental cells brain tissue
[7] = biological target: Transient receptor potential cation channel subfamily A member 1 (Homo sapiens, UniProt O75762); experiment: Fluorometric imaging plate reader (FLIPR)-based Ca2+ assay; parameters: compound concentration 0.03-0.3 uM
[8] = biological target: Casein kinase I isoform gamma-3 (Homo sapiens) (UniProt Q9Y6M4); settings: Compound concentration 1000.0 nM
[9] = biological target: Sodium-dependent noradrenaline transporter (Homo sapiens) (UniProt P23975); experiment: NE transporter CEREP ligand profiling; settings: Compound concentration 10.0 uM
[10] = biological target: Beta-1 adrenergic receptor (Homo sapiens) (UniProt P08588); experiment: beta1 (h) CEREP ligand profiling; settings: Compound concentration 10.0 uM
[11] = biological target: T1, Muscarinic acetylcholine receptor M4 (Homo sapiens) (UniProt P08173); experiment: M4 (h) CEREP ligand profiling; settings: Compound concentration 10.0 uM
T1 sequence (whole entry): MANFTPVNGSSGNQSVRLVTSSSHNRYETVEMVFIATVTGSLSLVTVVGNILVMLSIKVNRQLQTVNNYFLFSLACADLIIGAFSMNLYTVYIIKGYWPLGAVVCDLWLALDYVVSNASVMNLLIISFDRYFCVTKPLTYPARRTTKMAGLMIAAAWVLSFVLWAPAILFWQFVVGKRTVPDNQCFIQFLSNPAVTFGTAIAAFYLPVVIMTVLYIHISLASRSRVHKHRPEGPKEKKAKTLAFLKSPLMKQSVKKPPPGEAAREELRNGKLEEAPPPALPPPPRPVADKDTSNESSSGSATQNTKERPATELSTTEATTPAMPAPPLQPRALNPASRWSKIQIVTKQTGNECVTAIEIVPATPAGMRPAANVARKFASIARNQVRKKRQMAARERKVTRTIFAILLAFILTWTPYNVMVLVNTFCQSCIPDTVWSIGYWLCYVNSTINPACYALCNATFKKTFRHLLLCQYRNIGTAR

[12] = biological target: 5-hydroxytryptamine receptor 2A (Homo sapiens) (UniProt P28223); experiment: 5-HT2A (h) CEREP ligand profiling; settings: Compound concentration 10.0 uM
[13] = biological target: Cholecystokinin receptor type A (Homo sapiens) (UniProt P32238); experiment: CCKA (h) CEREP ligand profiling; settings: Compound concentration 10.0 uM
[14] = biological target: Type-1 angiotensin II receptor (Homo sapiens) (UniProt P30556); experiment: AT1 (h) CEREP ligand profiling; settings: Compound concentration 10.0 uM
[15] = biological target: Mu-type opioid receptor (Homo sapiens) (UniProt P35372); experiment: mu (h) (MOP) CEREP ligand profiling; settings: Compound concentration 10.0 uM
[16] = biological target: Delta-type opioid receptor (Homo sapiens) (UniProt P41143); experiment: delta 2 (h) CEREP ligand profiling; settings: Compound concentration 10.0 uM
[17] = biological target: Cannabinoid receptor 1 (Homo sapiens) (UniProt P21554); experiment: CB1 (h) CEREP ligand profiling; settings: Compound concentration 10.0 uM
[18] = biological target: B2 bradykinin receptor (Homo sapiens) (UniProt P30411); experiment: B2 (h) CEREP ligand profiling; settings: Compound concentration 10.0 uM
[19] = biological target: Neuromedin-K receptor (Homo sapiens) (UniProt P29371); experiment: NK3 (h) CEREP ligand profiling; settings: Compound concentration 10.0 uM
[20] = biological target: Adrenergic receptor alpha-2 (Homo sapiens) (UniProt P08913+P18825+P18089); experiment: alpha 2 CEREP ligand profiling; format: protein assay; settings: Compound concentration 10.0 uM
[21] = biological target: T2, 5-hydroxytryptamine receptor 2C (Homo sapiens) (UniProt P28335); experiment: 5-HT2C (h) CEREP ligand profiling; settings: Compound concentration 10.0 uM
T2 sequence (whole entry): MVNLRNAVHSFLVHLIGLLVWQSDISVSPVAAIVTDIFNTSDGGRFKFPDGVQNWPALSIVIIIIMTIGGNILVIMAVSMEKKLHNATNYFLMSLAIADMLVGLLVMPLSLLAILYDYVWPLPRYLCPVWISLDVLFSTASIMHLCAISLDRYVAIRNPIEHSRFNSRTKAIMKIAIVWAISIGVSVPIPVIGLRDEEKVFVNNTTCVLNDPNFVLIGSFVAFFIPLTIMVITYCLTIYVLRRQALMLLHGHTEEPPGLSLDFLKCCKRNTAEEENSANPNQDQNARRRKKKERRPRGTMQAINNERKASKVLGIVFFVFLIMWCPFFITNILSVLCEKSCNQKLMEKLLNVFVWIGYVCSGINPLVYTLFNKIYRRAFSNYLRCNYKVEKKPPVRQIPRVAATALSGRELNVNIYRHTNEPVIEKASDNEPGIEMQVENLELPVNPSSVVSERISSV

[22] = biological target: Melanocortin receptor 4 (Homo sapiens) (UniProt P32245); experiment: MC4 (h) CEREP ligand profiling; settings: Compound concentration 10.0 uM
[23] = biological target: Histamine H1 receptor (Homo sapiens) (UniProt P35367); experiment: H1 (h) CEREP ligand profiling; settings: Compound concentration 10.0 uM
[24] = biological target: 5-hydroxytryptamine receptor 5A (Homo sapiens) (UniProt P47898); experiment: 5-HT5A (h) CEREP ligand profiling; settings: Compound concentration 10.0 uM
[25] = biological target: GABA-A receptor; anion channel (Homo sapiens) (UniProt P14867+P47870+P18507+P28472+P48169+Q99928+Q9UN88+P34903+O00591+O14764+Q8N1C3+P18505+P78334+P47869+P31644+Q16445); experiment: Cl- channel CEREP ligand profiling; format: protein-complex assay; settings: Compound concentration 10.0 uM
[26] = biological target: T3, Muscarinic acetylcholine receptor M1 (Homo sapiens) (UniProt P11229); experiment: M1 (h) CEREP ligand profiling; settings: Compound concentration 10.0 uM
T3 sequence (whole entry): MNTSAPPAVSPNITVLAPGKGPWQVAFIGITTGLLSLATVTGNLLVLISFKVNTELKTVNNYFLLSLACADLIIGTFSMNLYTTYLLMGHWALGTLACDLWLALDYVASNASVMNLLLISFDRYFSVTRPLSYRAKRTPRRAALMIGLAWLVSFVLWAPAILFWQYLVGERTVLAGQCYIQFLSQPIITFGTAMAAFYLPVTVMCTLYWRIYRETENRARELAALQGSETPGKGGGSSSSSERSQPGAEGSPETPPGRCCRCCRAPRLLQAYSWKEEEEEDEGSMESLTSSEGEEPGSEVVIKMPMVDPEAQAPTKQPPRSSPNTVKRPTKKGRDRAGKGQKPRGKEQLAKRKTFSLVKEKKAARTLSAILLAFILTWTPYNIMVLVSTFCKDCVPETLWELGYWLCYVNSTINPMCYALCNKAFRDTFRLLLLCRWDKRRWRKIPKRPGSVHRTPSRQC

Calcium/calmodulin-dependent protein kinase kinase 1 (Homo sapiens), sequence (Q8N5S9 whole entry, looked up): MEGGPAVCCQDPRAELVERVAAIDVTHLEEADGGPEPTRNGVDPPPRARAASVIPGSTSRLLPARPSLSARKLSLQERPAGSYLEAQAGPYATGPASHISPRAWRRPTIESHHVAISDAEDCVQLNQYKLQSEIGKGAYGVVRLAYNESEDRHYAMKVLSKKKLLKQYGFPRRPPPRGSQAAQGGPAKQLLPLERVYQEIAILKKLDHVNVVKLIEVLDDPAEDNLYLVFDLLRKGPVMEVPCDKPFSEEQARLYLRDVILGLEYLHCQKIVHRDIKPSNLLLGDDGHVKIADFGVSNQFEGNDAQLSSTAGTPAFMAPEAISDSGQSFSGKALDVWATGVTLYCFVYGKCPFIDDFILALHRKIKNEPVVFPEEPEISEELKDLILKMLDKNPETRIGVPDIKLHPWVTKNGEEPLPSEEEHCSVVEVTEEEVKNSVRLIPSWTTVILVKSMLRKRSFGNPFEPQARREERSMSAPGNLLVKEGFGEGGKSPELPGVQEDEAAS
Casein kinase I isoform gamma-3 (Homo sapiens), sequence (Q9Y6M4 whole entry, looked up, canonical isoform): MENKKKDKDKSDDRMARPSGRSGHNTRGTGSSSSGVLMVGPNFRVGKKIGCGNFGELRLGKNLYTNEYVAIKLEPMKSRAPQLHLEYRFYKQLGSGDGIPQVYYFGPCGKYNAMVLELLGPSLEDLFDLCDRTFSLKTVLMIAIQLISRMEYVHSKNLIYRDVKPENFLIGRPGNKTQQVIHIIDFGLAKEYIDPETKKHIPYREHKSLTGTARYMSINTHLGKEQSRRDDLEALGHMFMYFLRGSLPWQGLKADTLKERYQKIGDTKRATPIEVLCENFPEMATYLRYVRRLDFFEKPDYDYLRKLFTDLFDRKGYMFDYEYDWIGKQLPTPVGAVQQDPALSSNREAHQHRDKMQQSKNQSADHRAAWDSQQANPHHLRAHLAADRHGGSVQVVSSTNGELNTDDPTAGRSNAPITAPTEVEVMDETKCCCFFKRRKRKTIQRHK
Dual specificity mitogen-activated protein kinase kinase 5 (Homo sapiens), sequence (Q13163 whole entry): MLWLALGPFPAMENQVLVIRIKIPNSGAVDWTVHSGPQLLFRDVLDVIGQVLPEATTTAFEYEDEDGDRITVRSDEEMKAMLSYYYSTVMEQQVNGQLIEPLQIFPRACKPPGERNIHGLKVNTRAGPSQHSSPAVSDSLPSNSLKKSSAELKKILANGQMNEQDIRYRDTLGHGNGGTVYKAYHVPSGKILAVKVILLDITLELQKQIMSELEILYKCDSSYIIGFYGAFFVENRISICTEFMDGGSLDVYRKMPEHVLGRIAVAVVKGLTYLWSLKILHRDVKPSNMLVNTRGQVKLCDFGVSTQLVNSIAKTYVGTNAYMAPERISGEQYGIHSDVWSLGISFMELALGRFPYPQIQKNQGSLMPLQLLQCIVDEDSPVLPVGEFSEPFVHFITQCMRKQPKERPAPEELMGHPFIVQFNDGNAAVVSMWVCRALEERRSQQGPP
Beta-1 adrenergic receptor (Homo sapiens), sequence (P08588 whole entry, looked up): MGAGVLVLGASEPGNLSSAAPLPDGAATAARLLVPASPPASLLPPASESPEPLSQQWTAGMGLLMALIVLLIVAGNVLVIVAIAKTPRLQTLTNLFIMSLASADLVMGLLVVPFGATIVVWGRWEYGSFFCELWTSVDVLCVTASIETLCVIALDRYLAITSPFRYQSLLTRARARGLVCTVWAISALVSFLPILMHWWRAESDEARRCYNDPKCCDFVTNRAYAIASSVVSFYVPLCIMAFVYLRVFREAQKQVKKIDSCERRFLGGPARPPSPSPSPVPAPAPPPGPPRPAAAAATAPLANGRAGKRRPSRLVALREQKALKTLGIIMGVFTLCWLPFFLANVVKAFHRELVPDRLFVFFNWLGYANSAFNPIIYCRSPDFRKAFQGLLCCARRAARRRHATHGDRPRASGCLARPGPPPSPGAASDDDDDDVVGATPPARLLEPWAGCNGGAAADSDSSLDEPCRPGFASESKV
Sodium-dependent noradrenaline transporter (Homo sapiens), sequence (P23975 whole entry): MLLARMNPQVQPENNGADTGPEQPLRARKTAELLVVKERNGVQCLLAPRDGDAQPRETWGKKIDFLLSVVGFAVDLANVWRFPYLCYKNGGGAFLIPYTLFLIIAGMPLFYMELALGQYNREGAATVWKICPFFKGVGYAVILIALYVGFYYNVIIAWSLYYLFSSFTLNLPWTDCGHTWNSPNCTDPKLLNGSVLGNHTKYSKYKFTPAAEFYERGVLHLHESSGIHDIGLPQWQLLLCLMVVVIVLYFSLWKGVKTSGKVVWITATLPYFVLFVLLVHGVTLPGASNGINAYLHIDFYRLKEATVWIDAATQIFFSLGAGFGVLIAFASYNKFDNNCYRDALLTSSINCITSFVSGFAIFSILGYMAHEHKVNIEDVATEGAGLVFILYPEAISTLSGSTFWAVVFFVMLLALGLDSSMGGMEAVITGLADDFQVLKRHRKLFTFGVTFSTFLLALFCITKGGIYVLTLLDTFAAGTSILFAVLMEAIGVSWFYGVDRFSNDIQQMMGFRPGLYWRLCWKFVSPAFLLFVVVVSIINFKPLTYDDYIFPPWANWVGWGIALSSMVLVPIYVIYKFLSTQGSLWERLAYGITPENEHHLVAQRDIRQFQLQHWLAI
Rho-associated protein kinase 2 (Homo sapiens), sequence (O75116 whole entry, looked up): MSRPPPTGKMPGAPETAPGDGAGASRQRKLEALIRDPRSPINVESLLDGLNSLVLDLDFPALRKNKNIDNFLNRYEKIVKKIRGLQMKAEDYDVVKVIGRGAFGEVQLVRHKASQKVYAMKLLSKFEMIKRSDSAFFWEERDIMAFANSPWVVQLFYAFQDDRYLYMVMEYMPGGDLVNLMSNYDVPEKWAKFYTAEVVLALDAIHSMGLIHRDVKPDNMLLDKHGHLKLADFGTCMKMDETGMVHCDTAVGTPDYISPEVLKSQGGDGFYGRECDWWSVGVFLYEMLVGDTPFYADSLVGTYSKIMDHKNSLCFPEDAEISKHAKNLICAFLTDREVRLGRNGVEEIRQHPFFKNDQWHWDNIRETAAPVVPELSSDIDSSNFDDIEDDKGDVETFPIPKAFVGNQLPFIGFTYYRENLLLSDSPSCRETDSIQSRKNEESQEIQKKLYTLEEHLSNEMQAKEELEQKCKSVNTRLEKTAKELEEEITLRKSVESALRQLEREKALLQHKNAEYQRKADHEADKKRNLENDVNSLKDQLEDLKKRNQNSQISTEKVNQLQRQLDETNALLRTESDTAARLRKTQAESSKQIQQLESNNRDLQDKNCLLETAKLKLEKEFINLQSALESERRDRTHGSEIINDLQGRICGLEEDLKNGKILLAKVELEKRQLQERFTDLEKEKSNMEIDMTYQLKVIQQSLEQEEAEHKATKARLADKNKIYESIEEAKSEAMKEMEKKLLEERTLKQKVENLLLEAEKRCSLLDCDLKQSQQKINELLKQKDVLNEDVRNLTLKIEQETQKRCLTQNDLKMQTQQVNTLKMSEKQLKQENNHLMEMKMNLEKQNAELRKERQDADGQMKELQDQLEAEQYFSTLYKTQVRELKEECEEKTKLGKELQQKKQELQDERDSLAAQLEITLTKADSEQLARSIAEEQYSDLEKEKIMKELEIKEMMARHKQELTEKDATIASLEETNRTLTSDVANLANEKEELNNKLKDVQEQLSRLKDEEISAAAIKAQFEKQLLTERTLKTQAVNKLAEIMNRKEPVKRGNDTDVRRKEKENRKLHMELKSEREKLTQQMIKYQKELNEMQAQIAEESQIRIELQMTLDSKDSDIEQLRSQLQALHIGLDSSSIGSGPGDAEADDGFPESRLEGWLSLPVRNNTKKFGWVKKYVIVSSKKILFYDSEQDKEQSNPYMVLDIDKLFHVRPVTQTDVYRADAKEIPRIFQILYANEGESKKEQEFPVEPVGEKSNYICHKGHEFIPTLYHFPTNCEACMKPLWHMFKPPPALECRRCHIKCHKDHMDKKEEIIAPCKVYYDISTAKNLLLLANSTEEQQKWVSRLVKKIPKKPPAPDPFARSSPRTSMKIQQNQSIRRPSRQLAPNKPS
5-hydroxytryptamine receptor 2A (Homo sapiens), sequence (P28223 whole entry): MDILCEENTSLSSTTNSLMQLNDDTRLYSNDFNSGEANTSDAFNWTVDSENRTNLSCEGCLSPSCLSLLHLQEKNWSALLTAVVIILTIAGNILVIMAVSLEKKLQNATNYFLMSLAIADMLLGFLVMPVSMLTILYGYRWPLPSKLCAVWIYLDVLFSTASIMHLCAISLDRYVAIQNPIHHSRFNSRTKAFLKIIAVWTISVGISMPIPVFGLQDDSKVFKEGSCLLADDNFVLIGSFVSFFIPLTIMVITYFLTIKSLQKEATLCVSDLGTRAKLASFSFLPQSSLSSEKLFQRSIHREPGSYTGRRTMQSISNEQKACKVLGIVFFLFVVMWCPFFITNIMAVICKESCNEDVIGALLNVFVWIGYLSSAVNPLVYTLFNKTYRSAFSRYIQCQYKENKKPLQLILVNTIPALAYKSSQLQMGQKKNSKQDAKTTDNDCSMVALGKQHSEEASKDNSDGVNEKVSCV
Neuromedin-K receptor (Homo sapiens), sequence (P29371 whole entry): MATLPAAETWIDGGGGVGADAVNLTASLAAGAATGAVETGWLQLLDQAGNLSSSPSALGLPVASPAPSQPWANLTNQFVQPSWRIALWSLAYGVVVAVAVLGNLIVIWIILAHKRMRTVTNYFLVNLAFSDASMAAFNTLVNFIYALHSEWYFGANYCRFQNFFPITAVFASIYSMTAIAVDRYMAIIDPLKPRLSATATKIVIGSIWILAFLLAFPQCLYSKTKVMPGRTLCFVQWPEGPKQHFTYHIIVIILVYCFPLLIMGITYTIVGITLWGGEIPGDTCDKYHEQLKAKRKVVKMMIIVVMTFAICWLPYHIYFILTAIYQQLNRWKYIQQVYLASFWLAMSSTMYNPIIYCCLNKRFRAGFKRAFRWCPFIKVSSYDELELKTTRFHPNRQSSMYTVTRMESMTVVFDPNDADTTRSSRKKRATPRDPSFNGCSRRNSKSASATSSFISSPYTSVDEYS

CCC(=N\O)/C(C)=C/c1ccc(F)c(C)c1 [A-226]
residual activity [1]: 86%
residual activity [2]: 100%
residual activity [3]: 100%
residual activity [4]: 100%
residual activity [5]: 100%
Ki [6]: 3.69 µM
pKi [6]: 5.44
IC50 [7]: > 100 µM (not active)
residual activity [8]: 100%

CCC(=N\O)/C(C)=C/c1ccc(F)cc1 [A-079]
inhibition [9]: 32%
inhibition [10]: -2%
inhibition [11]: 5%
inhibition [12]: -1%
inhibition [13]: 29%
inhibition [14]: -1%
inhibition [15]: 12%
inhibition [16]: 11%
inhibition [17]: 3%
inhibition [18]: 2%
inhibition [19]: 23%
inhibition [20]: -1%
inhibition [21]: 6%
inhibition [22]: 2%
inhibition [23]: 4%
inhibition [24]: 4%
inhibition [25]: 26%
inhibition [26]: 8%
